Test results: patent publication US20080090805A1, “CB-1 MODULATING COMPOUNDS AND THEIR USE” (ACADIA PHARMACEUTICALS INC., priority 2005, published 2008)
Where two headings read alike, the source gives them in different places.

Biological target: CB1 (mutant) (Homo sapiens, UniProt P21554)
Assay: R-SAT functional receptor assay, CB1 (mutant, truncated after amino acid 417)
Assay type: cell-based
Details: R-SAT CB1; for IC50: receptor form (mutant or wild-type) not stated
[1] = Appendix A, read-out: pIC50 (converted)
[2] = Appendix A, receptor form not stated, relative to SR141716 (100%), read-out: % Inhibition
[3] = read-out: % Inhibition, Appendix A, receptor form not stated, relative to SR141716 (100%)

CB1 (mutant), sequence (P21554 1-417, change not shown): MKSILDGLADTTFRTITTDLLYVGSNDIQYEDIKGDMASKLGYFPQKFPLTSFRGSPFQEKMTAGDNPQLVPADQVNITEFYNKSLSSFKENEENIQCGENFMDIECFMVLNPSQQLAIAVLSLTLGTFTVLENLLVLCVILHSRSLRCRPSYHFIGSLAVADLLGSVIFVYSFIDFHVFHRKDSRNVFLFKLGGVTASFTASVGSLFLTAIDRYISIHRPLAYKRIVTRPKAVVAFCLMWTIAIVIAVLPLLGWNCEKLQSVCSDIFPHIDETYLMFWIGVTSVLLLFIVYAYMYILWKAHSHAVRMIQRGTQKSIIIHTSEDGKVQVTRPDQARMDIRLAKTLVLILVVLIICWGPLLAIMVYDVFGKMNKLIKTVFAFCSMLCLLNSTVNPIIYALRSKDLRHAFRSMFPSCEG

IC50 [1] [nM] | Emax [2] [%] | % Inhibition (Appendix A, receptor form not stated, relative to SR141716 (100%)) [%] | SMILES | IC50 (pIC50, Appendix A) [nM] | Emax [3] [%]
50.1 | 92 | – | CCOCCNC(=O)c1ccc2c(c1)N=C(c1ccc(Cl)cc1)c1ccccc1S2 [drawing 604] | – | –
50.1 | 94 | – | O=C(NCc1ccccc1Br)c1ccc2c(c1)N=C(c1ccc(Cl)cc1)c1ccccc1S2 [drawing 608] | – | –
50.1 | 104 | – | O=C(NN1CCCCC1)c1ccc2c(c1)N=C(N1CCCCC1)c1ccccc1S2 [drawing 610] | – | –
3.98 | 80 | – | O=C(NCc1ccc(F)cc1)c1ccc2c(c1)N=C(N1CCCCC1)c1ccccc1S2 [drawing 611] | – | –
50.1 | 90 | – | O=C(NCc1ccccn1)c1ccc2c(c1)N=C(c1ccc(Br)cc1)c1ccccc1S2 [drawing 612] | – | –
3.98 | 110 | – | CC(C)CNC(=O)c1ccc2c(c1)N=C(c1ccc(Cl)cc1F)c1ccccc1S2 [drawing 613] | – | –
3.98 | 110 | – | O=C(NCCCc1ccccc1)c1ccc2c(c1)N=C(c1cccc(Cl)c1)c1ccccc1S2 [drawing 615] | – | –
3.98 | 111 | – | O=C(NCCCc1ccccc1)c1ccc2c(c1)N=C(c1ccccc1)c1ccccc1S2 [drawing 617] | – | –
3.98 | 118 | – | O=C(NCc1ccco1)c1ccc2c(c1)N=C(c1ccc(Cl)s1)c1ccccc1S2 [drawing 621] | – | –
5.01 | 74 | – | Cc1ccc(CNC(=O)c2ccc3c(c2)N=C(c2cccc(Cl)c2)c2ccccc2S3)o1 [drawing 623] | – | –
63.1 | 103 | – | O=C(NN1CCCCCC1)c1ccc2c(c1)N=C(c1ccc(Cl)cc1)c1ccccc1S2 [drawing 624] | – | –
5.01 | 85 | – | O=C(NCCC(F)(F)F)c1ccc2c(c1)N=C(c1cccc(F)c1)c1ccccc1S2 [drawing 625] | – | –
5.01 | 118 | – | CC(C)CNC(=O)c1ccc2c(c1)N=C(c1ccccc1F)c1ccccc1S2 [drawing 627] | – | –
63.1 | 99 | – | O=C(NCCc1ccc(Cl)cc1)c1ccc2c(c1)N=C(N1CCC(F)(F)CC1)c1ccccc1S2 [drawing 628] | – | –
5.01 | 112 | – | CC(C)CNC(=O)c1ccc2c(c1)N=C(c1cccc(F)c1)c1ccccc1S2 [drawing 629] | – | –
5.01 | 104 | – | O=C(NCCc1ccc(Cl)cc1)c1ccc2c(c1)N=C(c1ccc(Cl)cc1)c1ccccc1S2 [drawing 631] | – | –
63.1 | 95 | – | CCCCNC(=O)c1ccc2c(c1)N=C(c1ccc(Cl)cn1)c1ccc(F)cc1S2 [drawing 632] | – | –
5.01 | 92 | – | CCCCNC(=O)c1ccc2c(c1)N=C(c1ccc(Cl)s1)c1ccccc1S2 [drawing 633] | – | –
63.1 | – | 87 | CC(NC(=O)c1ccc2c(c1)N=C(C1CCCCC1)c1ccccc1S2)c1ccccc1 (stereo not drawn) [drawing 634] | – | –
5.01 | 102 | – | CCN(CCNC(=O)c1ccc2c(c1)N=C(c1ccc(Cl)cc1)c1ccccc1S2)c1ccccc1 [drawing 635] | – | –

IC50 [1] [nM] | Emax [2] [%] | % Inhibition (Appendix A, receptor form not stated, relative to SR141716 (100%)) [%] | SMILES | IC50 (pIC50, Appendix A) [nM] | Emax [3] [%]
5.01 | 112 | – | O=C(NCc1cccc(Cl)c1)c1ccc2c(c1)N=C(C1CCCCC1)c1ccccc1S2 [drawing 637] | – | –
63.1 | 116 | – | O=C(NCCc1cccnc1)c1ccc2c(c1)N=C(c1ccc(Cl)cc1)c1ccccc1S2 [drawing 638] | – | –
5.01 | 107 | – | CCCNC(=O)c1ccc2c(c1)N=C(c1cccc(Cl)c1)c1ccccc1S2 [drawing 641] | – | –
5.01 | 108 | – | CC(C)CNC(=O)c1ccc2c(c1)N=C(c1ccc(Cl)c(Cl)c1)c1ccccc1S2 [drawing 643] | – | –
5.01 | 105 | – | O=C(NCc1ccccc1)c1ccc2c(c1)N=C(c1ccc(Cl)cc1)c1ccccc1S2 [drawing 647] | – | –
5.01 | 107 | – | O=C(NCc1cccc(Cl)c1)c1ccc2c(c1)N=C(N1CCCCC1)c1cc(F)ccc1S2 [drawing 649] | – | –
5.01 | 107 | – | O=C(NCc1cccc(Cl)c1)c1ccc2c(c1)N=C(c1cccc(Cl)c1)c1cc(F)ccc1S2 [drawing 651] | – | –
63.1 | 81 | – | Cc1ccsc1C1=Nc2cc(C(=O)NC3CCCC3)ccc2Sc2ccccc21 [drawing 652] | – | –
6.31 | 94 | – | Cc1csc(CNC(=O)c2ccc3c(c2)N=C(c2ccc(Cl)s2)c2ccccc2S3)c1 [drawing 655] | – | –
6.31 | 122 | – | CCCCNC(=O)c1ccc2c(c1)N=C(c1ccc(Cl)cc1)c1sccc1S2 [drawing 657] | – | –
6.31 | 77 | – | O=C(NC1CCC(F)(F)CC1)c1ccc2c(c1)N=C(c1cccc(F)c1)c1ccccc1S2 [drawing 659] | – | –
63.1 | 92 | – | O=C(NN1CCCCC1)c1ccc2c(c1)N=C(c1ccc(F)cn1)c1ccccc1S2 [drawing 660] | – | –
6.31 | 102 | – | Cc1csc(CNC(=O)c2ccc3c(c2)N=C(c2sccc2C)c2ccccc2S3)c1 [drawing 661] | – | –
6.31 | 95 | – | O=C(NCCC(F)(F)F)c1ccc2c(c1)N=C(c1ccc(Cl)s1)c1ccccc1S2 [drawing 663] | – | –
63.1 | 101 | – | CC(C)NC(=O)c1ccc2c(c1)N=C(c1ccc(Cl)cc1F)c1ccccc1S2 [drawing 664] | – | –
– | – | – | CCCCNC(=O)c1ccc2c(c1)N=C(c1ccc(Cl)c(Cl)c1)c1ccccc1S2 [drawing 665] | – | 109
63.1 | 97 | – | CCCCNC(=O)c1ccc2c(c1)N=C(c1ccc(Cl)cc1)c1ccccc1[S+]2[O-] (stereo not drawn) [drawing 666] | – | –
6.31 | 100 | – | O=C(NCCC(F)(F)F)c1ccc2c(c1)N=C(c1ccc(Cl)cc1F)c1ccccc1S2 [drawing 667] | – | –
6.31 | 107 | – | O=C(NCc1cccnc1)c1ccc2c(c1)N=C(c1ccc(Cl)c(Cl)c1)c1ccccc1S2 [drawing 669] | – | –
– | 89 | – | O=C(NCc1cccc(Cl)c1)c1ccc2c(c1)N=C(c1ccc(F)cc1)c1ccccc1[S+]2[O-] (stereo not drawn) [drawing 670] | – | –

SMILES | IC50 [1] [nM] | Emax [2] [%] | % Inhibition (Appendix A, receptor form not stated, relative to SR141716 (100%)) [%] | IC50 (pIC50, Appendix A) [nM] | Emax [3] [%]
O=C(NCCC(F)(F)F)c1ccc2c(c1)N=C(c1ccsc1)c1ccccc1S2 [drawing 607] | – | 97 | – | 3.98 | –
CC(C)CNC(=O)c1ccc2c(c1)N=C(c1cccc(Cl)c1)c1ccccc1S2 [drawing 609] | 3.98 | – | – | – | 116
Cc1ccsc1C1=Nc2cc(C(=O)NC3CCC(F)(F)CC3)ccc2Sc2ccccc21 [drawing 620] | – | 76 | – | 63.1 | –
O=C(NCc1ccccc1Cl)c1ccc2c(c1)N=C(c1ccccc1F)c1ccccc1S2 [drawing 622] | – | 72 | – | 63.1 | –
CCCCNC(=O)c1cc2c(cc1C)Sc1ccccc1C(c1ccc(Cl)cc1)=N2 [drawing 630] | – | 94 | – | 63.1 | –
CC(CNC(=O)c1ccc2c(c1)N=C(c1ccc(F)cc1)c1ccccc1S2)c1ccccc1 (stereo not drawn) [drawing 639] | – | 98 | – | 5.01 | –
O=C(NCCCc1ccccc1)c1ccc2c(c1)N=C(c1ccc(Cl)cc1)c1ccccc1S2 [drawing 645] | – | 106 | – | 5.01 | –
COc1cccc(C2=Nc3cc(C(=O)NC4CCC(F)(F)CC4)ccc3Sc3ccccc32)n1 [drawing 653] | – | 104 | – | 6.31 | –
CC(C)CCNC(=O)c1ccc2c(c1)N=C(c1cccc(F)c1)c1ccccc1S2 [drawing 671] | – | 100 | – | 6.31 | –
